# From publication PMC8509831 (International Journal of Molecular Sciences, 2021)
# Read-outs that look alike come from different tables or passages of the source. Marks after values point to notes of the source that are not given here.
# How the values were obtained:
# [1] = biological target: T1, COX-1 (Ovis aries, UniProt P05979); assay: COX-1 enzyme inhibitory assay (COX inhibitor screening kit); type: biochemical
# T1 construct: purchased Cayman Chemicals 560131
# T1 sequence (P05979 25-600): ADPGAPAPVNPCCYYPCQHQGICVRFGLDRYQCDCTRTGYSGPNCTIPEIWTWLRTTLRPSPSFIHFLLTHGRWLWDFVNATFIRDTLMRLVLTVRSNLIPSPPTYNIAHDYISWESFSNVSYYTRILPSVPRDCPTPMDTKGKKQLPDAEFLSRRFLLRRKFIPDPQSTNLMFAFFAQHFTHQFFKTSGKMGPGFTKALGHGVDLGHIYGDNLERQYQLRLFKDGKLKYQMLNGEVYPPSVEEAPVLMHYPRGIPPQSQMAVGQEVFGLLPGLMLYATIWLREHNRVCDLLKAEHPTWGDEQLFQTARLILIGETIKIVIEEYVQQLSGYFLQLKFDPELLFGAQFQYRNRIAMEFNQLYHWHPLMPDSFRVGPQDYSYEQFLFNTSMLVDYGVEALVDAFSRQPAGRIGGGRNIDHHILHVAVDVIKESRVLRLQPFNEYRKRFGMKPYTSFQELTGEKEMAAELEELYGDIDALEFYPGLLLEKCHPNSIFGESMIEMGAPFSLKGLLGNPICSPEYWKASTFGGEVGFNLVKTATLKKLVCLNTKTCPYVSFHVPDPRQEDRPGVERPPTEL
# [2] = biological target: T2, COX-2 (Homo sapiens, UniProt P35354); assay: COX-2 enzyme inhibitory assay (COX inhibitor screening kit); type: biochemical; conditions: mean ± SD, n = 3; read-out: Enzyme Inhibitory Effect IC50 COX-2 (converted)
# T2 construct: purchased Cayman Chemicals 560131
# T2 sequence (P35354 18-604): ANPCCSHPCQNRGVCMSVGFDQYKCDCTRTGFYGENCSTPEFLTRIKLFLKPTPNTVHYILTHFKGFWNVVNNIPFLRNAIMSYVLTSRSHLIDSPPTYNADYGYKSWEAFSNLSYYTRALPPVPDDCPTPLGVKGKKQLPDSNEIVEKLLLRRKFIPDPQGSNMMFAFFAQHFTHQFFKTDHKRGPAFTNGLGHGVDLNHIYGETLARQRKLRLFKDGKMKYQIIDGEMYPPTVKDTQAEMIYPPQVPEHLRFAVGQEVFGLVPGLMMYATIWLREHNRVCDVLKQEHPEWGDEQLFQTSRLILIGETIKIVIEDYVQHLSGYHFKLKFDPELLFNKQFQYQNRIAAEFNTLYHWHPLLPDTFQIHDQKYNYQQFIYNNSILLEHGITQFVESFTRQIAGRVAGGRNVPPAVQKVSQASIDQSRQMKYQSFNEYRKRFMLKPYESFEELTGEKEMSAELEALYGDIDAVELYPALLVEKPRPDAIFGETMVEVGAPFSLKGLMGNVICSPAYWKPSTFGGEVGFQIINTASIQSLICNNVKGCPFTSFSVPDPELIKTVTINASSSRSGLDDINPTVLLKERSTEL
# [3] = biological target: LOX-5; assay: 5-LOX enzyme inhibitory assay (polarographic, Clark oxygen electrode); type: biochemical, potato; conditions: mean ± SD, n = 3
# Experimental: The IC50 was determined for the studied compounds and reference standards. […] Furthermore, 5-LOX enzyme was extracted from potato tubers as described previously. […] The enzyme activity was expressed as moles of oxygen consumed per min/mg protein, as 5-LOX adds oxygen to the substrate, implying that the rate of decrease of oxygen in the reaction mixture was intrinsic to the measurement of enzyme activity. The results were expressed as IC50 (μg/mL) for the sample and reference compounds in triplicate.
# [4] = WST cell viability assay; type: cell-based, human; conditions: human, HeLa cells, HeLa
# Experimental: (§1) The viability of HeLa cells treated with […] (0-100 μg/mL, concentrations) was examined for 24-72 h using a colorimetric WST assay. Briefly, HeLa cells were cultured in a clear-bottom 96-well plate at a density of 9 × 10^3 cells/well in MEM supplemented with 10% FBS and 1% penicillin-streptomycin in a 5% CO2 incubator and incubated for 24 h at 37 °C. The […] stock solution was prepared in DMSO and stored at -20 °C. Subsequently, the cells were exposed to various concentrations of […] (0-100 μg/mL) over a period of 24-72 h. The cell proliferation reagent WST-1 solution (10 μL/well) was added to the plates, followed by incubation in 5% CO2 for 2 h at 37 °C in the dark. Thereafter, the plates were shaken thoroughly for 1 min on a shaker at RT, and the absorbance of the reporter substrate was measured at 450 nm and 600 nm (reference wavelength 650 nm) using a microplate reader coupled with the Gen5 software (BioTek, Winooski, VT, USA).
# [5] = system: HeLa cells; assay: WST cell viability assay; type: cell-based, human; conditions: for Cell Viability (%): HeLa, 40 μg/mL, listed as Q3G
# Experimental: as §1
# [6] = system: HeLa cells; assay: Cell cycle analysis by PI flow cytometry; type: cell-based, human; conditions: 30 μg/mL, listed as Q3G
# Experimental: Cell cycle analysis was performed in HeLa cells as previously described. Cells were seeded into six-well plates at a density of 2 × 10^5 cells per well and treated with […] (30 μg/mL) for 12-48 h. Thereafter, the cells were harvested, washed with PBS, and fixed at 4 °C for 1 h in a 70% PBS-ethanol solution. Cells were subsequently washed twice with PBS, and 50 μL of a 100 μg/mL stock of DNase-free RNase was added to ensure that only DNA, not RNA, was stained. Cell pellets were stained with a fluorescent probe PI (50 μg/mL) and incubated at RT for 30 min, and then analyzed using a NovoCyte 1000 benchtop flow cytometer (ACEA Biosciences, San Diego, CA, USA).
# [7] = system: HeLa cells; assay: Annexin V-FITC/PI apoptosis assay by flow cytometry; type: cell-based, human
# Experimental: Annexin V-FITC/propidium iodide (PI) assay was performed as per the manufacturer's instructions (Sino Biological, Beijing, China). Briefly, HeLa cells (2 × 10^5 cells/well) in 6-well culture plates were treated with […] (30 μg/mL) or with DMSO as a vehicle control for 24 and 48 h. Subsequently, floating as well as adherent cells were collected and washed with PBS. The cells were centrifuged at 400× g for 5 min at RT and resuspended in binding buffer containing Annexin V-FITC, along with PI. In each experiment, 1 × 10^4 cells were analyzed for annexin V-FITC/PI staining after incubation for 20 min at RT in the dark.
# [8] = system: HeLa cells; assay: Intracellular ROS production (DCFDA fluorescence); type: cell-based, human; conditions: 30 μg/mL
# Experimental: Cellular ROS production was analyzed as previously described with minor modifications to the original methodology. Briefly, cells were seeded at a density of 1.5 × 10^4/well in a black, clear bottom 96-well plate. The following day, cells were treated with […] (30 μg/mL) or DMSO as a vehicle control for 12-48 h. Forty-five minutes prior to completion of the treatment, 100 μL of 2× H2DCFDA dilution was overlayed in each well and incubated in 5% CO2 with DCFDA as well as the compounds for 30 min at 37 °C. The fluorescence in each well was assessed on a microplate reader at the end point in the presence of compounds and DCFDA with Ex/Em = 485/535 nm wavelengths.
# [9] = system: CDK2; assay: Western blot, CDK2 expression; type: cell-based, human; conditions: HeLa, 30 μg/mL, 12-48 h
# Experimental: (§2) HeLa cells (1.5 × 10^6 cells/well) were seeded in six-well plates and cultured in MEM supplemented with 10% FBS for 24 h. Subsequently, the cells were treated with the indicated amounts of Q3G or DMSO as a vehicle control for 12–48 h. Following this, the cells were collected, and total lysates from treated cells were prepared in RIPA buffer for 15 min. Protein concentration was determined using a Bio-Rad protein assay kit with BSA [63]. […] Membranes were treated with PBS containing 0.05% Tween 20 and 5% nonfat dry milk to block nonspecific binding at 15–25 °C and were incubated overnight at 4 °C with the following specific primary antibodies: caspase-9/-3, Bax, Bcl-2, Bid, CDK2, and MuD. β-Actin was used as an invariant control for equal loading of total proteins. After incubation with the primary antibody, the membranes were incubated with the appropriate secondary antibodies conjugated to horseradish peroxidase. Finally, immunoreactive bands were visualized using an enhanced chemiluminescence substrate (Bio-Rad).
# [10] = system: Bcl-2; assay: Western blot, Bcl-2 expression; type: cell-based, human; conditions: HeLa, 30 μg/mL, 12, 24, and 48 h
# Experimental: as §2
# [11] = system: Bax; assay: Western blot, Bax expression; type: cell-based, human; conditions: HeLa, 30 μg/mL, 12, 24, and 48 h
# Experimental: as §2
# [12] = system: caspase-9; assay: Western blot, caspase-9 expression; type: cell-based, human; conditions: HeLa, 30 μg/mL, 12, 24, and 48 h
# Experimental: as §2
# [13] = system: MuD; assay: Western blot, MuD expression; type: cell-based, human; conditions: HeLa, 30 μg/mL, 12, 24, and 48 h
# Experimental: as §2
# [14] = mean ± SD, n = 3, read-out: Enzyme Inhibitory Effect IC50 COX-1 (converted)
compound,measurement,setting,value
O=c1c(O)c(-c2ccc(O)c(O)c2)oc2cc(O)cc(O)c12 [Quercetin],IC50,[1]; [14],20.2 µM
same,IC50,[2],37.4 µM
"O=c1c(O[C@@H]2O[C@H](CO)[C@@H](O)[C@H](O)[C@H]2O)c(-c2ccc(O)c(O)c2)oc2cc(O)cc(O)c12 [Quercetin-3-glucoside, quercetin 3-β-D-glucoside]",IC50,[1],7.8 µM
same,Enzyme Inhibitory Effect IC50 LOX-5,[3],2.31 ± 0.32 ^b μg/mL
same,"viability at 48 h, 0.1 μg/mL","[4]; 0.1 μg/mL, 48 h",114.98 ± 0.05%
same,"viability at 48 h, 1 μg/mL","[4]; 1 μg/mL, 48 h",103.3 ± 0.12%
same,"viability at 48 h, 10 μg/mL","[4]; 10 μg/mL, 48 h",116.1 ± 0.01%
same,"viability at 24 h, 40 μg/mL","[4]; 40 μg/mL, 24 h",83%
same,"viability at 48 h, 40 μg/mL","[4]; 40 μg/mL, 48 h",36%
same,"viability at 72 h, 40 μg/mL","[4]; 40 μg/mL, 72 h",18%
same,"viability at 48 h, 50 μg/mL","[4]; 50 μg/mL, 48 h",29.6%
same,"viability at 48 h, 100 μg/mL","[4]; 100 μg/mL, 48 h",41.81 ± 0.01%
same,concentrations with significant growth inhibition,"[5]; HeLa cells, 48 h",higher than 10 µg/mL
same,Cell Viability (%),[5]; 24 h,83.30 ± 4.05%
same,Cell Viability (%),[5]; 48 h,36.27 ± 1.38%
same,Cell Viability (%),[5]; 72 h,17.97 ± 1.42%
same,cells in S phase,[6]; 24 h,~56%
same,cells in S phase,[6]; 48 h,~63%
same,cells in early apoptosis,"[7]; 30 μg/mL, 48 h",Approximately 20%
same,cells in the late apoptosis phase,"[7]; 30 μg/mL, 48 h",~35%
same,difference in apoptosis (early and late phase) compared with the control cells,[7]; 24 h of treatment,No significant difference
same,increase in the number of apoptotic cells (Annexin V-positive cells),[7]; after 48 h compared to after 24 h of treatment,16–22%
same,ROS level higher than the control group,[8]; 12 h,approximately 6 fold
same,ROS level higher than the control group,[8]; 24 h,~12 fold
same,protein expression of CDK2,[9],decreasing
same,level of anti-apoptotic protein Bcl-2,[10],reduced
same,level of Bax,[11],increase
same,"expression of the initiator caspase, caspase-9",[12],reduced
same,MuD expression,[13],markedly reduced
O=C(CCc1ccc(O)cc1)c1c(O)cc(O)cc1O [Phloretin],IC50,[1]; [14],91.7 µM
same,IC50,[2],121 µM
same,Enzyme Inhibitory Effect IC50 LOX-5,[3],16.86 ± 1.22 ^h μg/mL
O=C(O)/C=C/c1ccc(O)cc1 [Coumaric acid],IC50,[1]; [14],55.4 µM
same,IC50,[2],93.2 µM
same,Enzyme Inhibitory Effect IC50 LOX-5,[3],7.96 ± 0.76 ^d μg/mL
O=C(CCc1ccc(O)cc1)c1c(O)cc(O)cc1O[C@@H]1O[C@H](CO)[C@@H](O)[C@H](O)[C@H]1O [Phloridzin],IC50,[1]; [14],65.6 µM
same,IC50,[2],83 µM
same,Enzyme Inhibitory Effect IC50 LOX-5,[3],18.98 ± 0.85 ^i μg/mL
Oc1cc(O)c2c(c1)O[C@H](c1ccc(O)c(O)c1)[C@H](O)C2 [Epicatechin],IC50,[1],63 µM
same,Enzyme Inhibitory Effect IC50 LOX-5,[3],10.09 ± 1.03 ^f μg/mL
O=C(O)/C=C/c1ccc(O)c(O)c1 [Caffeic acid],IC50,[1]; [14],113 µM
same,Enzyme Inhibitory Effect IC50 LOX-5,[3],12.26 ± 0.91 ^g μg/mL
O=C(/C=C/c1ccc(O)c(O)c1)O[C@@H]1C[C@](O)(C(=O)O)C[C@@H](O)[C@H]1O [Chlorogenic acid],IC50,[1]; [14],39.7 µM
same,IC50,[2],75.3 µM
same,Enzyme Inhibitory Effect IC50 LOX-5,[3],9.98 ± 0.94 ^e μg/mL
